Data: article PMC8405091, “Microwave-assisted Phospha-Michael addition reactions in the 13α-oestrone series and in vitro antiproliferative properties” (Journal of Enzyme Inhibition and Medicinal Chemistry, 2021)

Columns and labels:
Type in all cases: cell-based, human
[1] = test system: A2780 cells; experiment: MTT antiproliferative assay, A2780; details: Homo sapiens, A2780, 72 h, read-out: Growth inhibition, % ± SEM, 72 h; for inhibition at 10 µM: A2780, 10 μM; for inhibition at 30 µM: A2780, 30 μM
Experimental: (§1) The antiproliferative properties of the newly synthesized compounds (9–20) and their starting materials (4 and 5) were determined on a panel of human adherent cancer cell lines. MCF-7, MDA-MB-231 and T47D were isolated from breast cancers differing in biochemical background, while A2780 cells were isolated from ovarian cancer. HeLa and SiHa are cervical cancer cell lines positive for HPV-18 and HPV-16, respectively, while C33-A cervical cancer cells are negative for HPV. Moreover, two oropharyngeal cancer cell lines were also utilized: the HPV-negative UPCI-SCC-131 and HPV-16 positive UPCI-SCC-154. The cancer selectivity of compounds was tested on the non-cancerous mouse embryo fibroblast cell line NIH/3T3. All cell lines were purchased from European Collection of Cell Cultures (ECCAC, Salisbury, UK) exception for SiHa and C33-A (American Tissue Culture Collection, Manassas, VA, USA) and HN-SCC-131 and UPCI-SCC-154 (German Collection of Microorganisms and Cell Cultures GmbH, Braunschweig, Germany). Cells were cultivated in minimal essential medium supplemented with 10% fetal bovine serum, 1% non-essential amino acids and an antibiotic–antimycotic mixture. The medium of oropharyngeal cancer cells additionally contained 2.0 mM L-glutamine. All media and supplements were obtained from Lonza Group Ltd., Basel, Switzerland. Near-confluent cancer cells were seeded onto a 96-well microplate at a density of 5,000 cells/well, except for C33-A which were seeded at 10,000/well. After overnight standing, new medium containing the tested compounds at 10 and 30 µM final concentration was added. After incubation for 72 h at 37 °C in humidified air containing 5% CO2, the living cells were assayed by the addition of 20 μL of 5 mg/ml 3-(4,5-dimethylthiazol-2-yl)-2,5-diphenyltetrazolium bromide (MTT) solution. MTT was converted by intact mitochondrial reductase and precipitated as purple crystals during a 4-h contact period. The medium was next removed and the precipitated formazan crystals were dissolved in 100 μL of DMSO during a 60-min period of shaking at 37 ^оC.
(§2) All in vitro experiments were carried out twice with five parallels. Stock solutions of the tested substances (10 mM) were prepared in DMSO. […] Cisplatin (Ebewe Pharma GmbH, Unterach, Austria) was used as positive control.

[2] = test system: T47D cells; experiment: MTT antiproliferative assay, T47D; details: Homo sapiens, 72 h; for inhibition at 10 µM: read-out: Growth inhibition, % ± SEM, 10 μM; for inhibition at 30 µM: read-out: Growth inhibition, % ± SEM, 30 μM
Experimental: as §1, §2

[3] = test system: MCF-7 cells; experiment: MTT antiproliferative assay, MCF-7; details: Homo sapiens, MCF7, 72 h, read-out: Growth inhibition, % ± SEM, 72 h; for inhibition at 10 µM: MCF-7, 10 μM; for inhibition at 30 µM: MCF-7, 30 μM
Experimental: as §1, §2

[4] = test system: UPCI-SCC-131 cells; experiment: MTT antiproliferative assay, UPCI-SCC-131; details: 72 h
Experimental: as §1, §2

[5] = test system: HeLa cells; experiment: MTT antiproliferative assay, HeLa; details: 72 h; for inhibition at 10 µM: read-out: Growth inhibition, % ± SEM, 10 μM
Experimental: as §1, §2

[6] = test system: C33-A cells; experiment: MTT antiproliferative assay, C33-A; details: Homo sapiens, C-33-A, 72 h; for inhibition at 10 µM: read-out: Growth inhibition, % ± SEM, C33-A, 10 μM; for inhibition at 30 µM: read-out: Growth inhibition, % ± SEM, C33-A, 30 μM
Experimental: as §1, §2

[7] = test system: MDA-MB-231 cells; experiment: MTT antiproliferative assay, MDA-MB-231; details: Homo sapiens, MDA-MB-231, 72 h, read-out: Growth inhibition; % ± SEM
Experimental: as §1, §2

[8] = test system: SiHa cells; experiment: MTT antiproliferative assay, SiHa; details: 72 h; for inhibition at 10 µM: read-out: Growth inhibition, % ± SEM, 10 μM
Experimental: as §1, §2

[9] = test system: UPCI-SCC-154 cells; experiment: MTT antiproliferative assay, UPCI-SCC-154; details: 72 h, 72 h; for inhibition at 10 µM: UPCI-SCC-154, 10 μM
Experimental: as §1, §2

[10] = Homo sapiens, read-out: Growth inhibition, % ± SEM
[11] = Homo sapiens, read-out: Growth inhibition, % ± SEM, 30 μM

Structure (SMILES): CC12CCC3c4ccc(OCc5ccccc5)cc4CCC3C1CC(CP(=O)(c1ccc3ccccc3c1)c1ccc3ccccc3c1)C2=O (stereo not drawn) [Compound 19, [(3-benzyloxy-17-oxo-13α-oestra-1,3,5(10)-trien-16α-yl)methyl]di(naphtalen-2-yl)phosphine oxide]
- inhibition at 10 µM [1]: < 20%
- inhibition at 30 µM [1]: 28.5 ± 2.35%
- inhibition at 10 µM [2]: 59.4 ± 2.44%
- inhibition at 30 µM [2]: 62.4 ± 1.7%
- inhibition at 10 µM [3]: 31.8 ± 2.47%
- inhibition at 30 µM [3]: 40.6 ± 1.71%
- Growth inhibition; % ± SEM ([4]; UPCI-SCC-131, 10 μM, 10 µM): – (Inhibition values <20% are not presented.)
- Growth inhibition; % ± SEM ([4]; UPCI-SCC-131, 30 μM, 30 µM): 40.98 ± 2.94%
- Growth inhibition; % ± SEM ([5]; 30 μM): 48.89 ± 0.90%
- inhibition at 10 µM ([5]; Homo sapiens): 31 ± 1.11%
- inhibition at 10 µM [6]: 28.1 ± 1.39%
- inhibition at 30 µM [6]: 34.7 ± 1.7%
- inhibition at 10 µM [7]: < 20%
- inhibition at 30 µM [7]: < 20%
- Growth inhibition; % ± SEM ([8]; 30 μM): 40.30 ± 2.00%
- inhibition at 10 µM ([8]; Homo sapiens): 23.2 ± 1.36%
- inhibition at 10 µM [9, 10]: 34.3 ± 2.8%
- Growth inhibition; % ± SEM ([9]; UPCI-SCC-154, 30 μM, 30 µM): 48.81 ± 2.15%

Structure (SMILES): Cc1ccc(P(=O)(C[C@@H]2C[C@H]3[C@@H]4CCc5cc(OCc6ccccc6)ccc5[C@H]4CC[C@@]3(C)C2=O)c2ccc(C)cc2)cc1 [Compound 15, [(3-benzyloxy-17-oxo-13α-oestra-1,3,5(10)-trien-16α-yl)methyl]di-p-tolylphosphine oxide]
- inhibition at 10 µM [1]: < 20%
- inhibition at 30 µM [1]: 49.4 ± 2.06%
- inhibition at 10 µM [2]: 39.1 ± 2.01%
- inhibition at 30 µM [2]: 58.5 ± 0.8%
- inhibition at 10 µM [3]: < 20%
- inhibition at 30 µM [3]: < 20%
- inhibition at 10 µM ([4]; Homo sapiens, read-out: Growth inhibition, % ± SEM, UPCI-SCC-131, 10 μM): 24.6 ± 1.39%
- inhibition at 30 µM ([4]; Homo sapiens, read-out: Growth inhibition, % ± SEM, UPCI-SCC-131, 30 μM): 60.2 ± 1.32%
- inhibition at 10 µM ([5]; Homo sapiens): < 20%
- inhibition at 30 µM [5, 11]: 27.4 ± 1.57%
- inhibition at 10 µM [6]: < 20%
- inhibition at 30 µM [6]: 26.9 ± 0.84%
- inhibition at 10 µM [7]: < 20%
- inhibition at 30 µM [7]: < 20%
- inhibition at 10 µM ([8]; Homo sapiens): < 20%
- inhibition at 30 µM [8, 11]: < 20%
- inhibition at 10 µM [9, 10]: < 20%
- inhibition at 30 µM ([9]; Homo sapiens, read-out: Growth inhibition, % ± SEM, UPCI-SCC-154, 30 μM): 34.7 ± 1.36%
